The values below come from patent publication US20150258220A1, “MAGNETIC RESONANCE IMAGING AND/OR SPECTROSCOPY CONTRAST AGENTS AND METHODS OF USE THEREOF” (Duke University, priority 2008, published 2015).

A short description of series [1]: DNP hyperpolarization (Oxford HYPERSENSE), single-shot 13C NMR in water. Type of series: physicochemical. The note with it: hyperpolarized sample in water. The source says: FIG. 1 is a single-shot hyperpolarized ^13C nuclear magnetic resonance (NMR) spectrum of 2,3-^13C diacetyl in water. Hyperpolarized 2,3-^13C diacetyl was produced by a commercially available hyperpolarizer (Oxford HYPERSENSE™, Oxford Instruments Molecular Biotools Ltd., Tubney Woods, Abingdon, Oxfordshire, United Kingdom). The sample has about 20% nuclear polarization. The thermally polarized spectrum (not shown) is similar after many averages.
In some embodiments, the hyperpolarizing is performed by DNP. DNP refers to transferring spin polarization from electrons to nuclei. DNP can be performed by doping a material with a free radical. The unpaired electrons in the free radical can be polarized, for example, by exposure to a high magnetic field and low temperature. Irradiation at the electron paramagnetic resonance frequency can then serve to transfer polarization to the nuclei. By “hyperpolarization,” it is meant that the sample is polarized to a level over that found at room temperature and 1 Tesla, preferably polarized to a polarization degree in excess of 0.1%, more preferably 1%, even more preferably 10%.

Series [2] is described as follows: 13C NMR inversion recovery of diacetyl / monohydrate in water. It counts as physicochemical. The note with it: pH 7, water. On the procedure: ^13C-labelled diacetyl was prepared from ^13C2 oxalate, which was reacted with N, N′-dimethylethylenediamine to afford 2,3-^13C2-1,4-dimethylpiperazine-2,3-dione in 97% yield. Two equivalents of methyl magnesium bromide were added to the piperazine dione to produce the dimethyl piperazine N,O-acetal. Crude acetal was hydrolyzed with 10% aqueous HCl to yield 2,3-^13C2-diacetyl, which was purified by fractional distillation. The carbonyl carbons in diacetyl are magnetically equivalent by symmetry, so at modest resolution (such as that commonly achieved in an imaging system), the spectrum is expected to have only a single line. Neat 2,3-^13C diacetyl does have a single line carbon-13 NMR spectrum, however the carbon spectrum in water has five lines. In water, the monohydrate (i.e., CH3—(^13C═O)(^13C(OH)2)CH3) with classic AX doublets (splitting JC-C=50 Hz) is the majority species. See Bell, Adv. Phys. Org. Chem., 4, 1 (1966); Bell and McDougall, Trans. Faraday Soc., 56, 1281-1285 (1960); and Greenzaid et al., J. Am. Chem. Soc., 89, 749 (1967). The dihydrate is undetectable. Equilibrium can be shifted back to diacetyl by changing solvent, and the rate of interconversion is pH dependent. At pH 7, inversion of the diacetyl alone causes recovery in 8 s, which gives the rate of dehydration. Inversion of all lines causes diacetyl to recover in 22 s.

For series [3] the following is noted: butter; cited from earlier work.

Turning to `CC(=O)C(C)=O` [diacetyl], in series [1], the nuclear polarization result is recorded as “about 20%”. Also, in series [2], the “recovery time after inversion of the diacetyl alone (gives the rate of dehydration)” value is given as 8 s and the “recovery time of diacetyl after inversion of all lines” value is listed as 22 s. For the same compound, the partitioning between phases result in series [3] is on record as “mostly found in the fatty phase”.
